Results: paper PMC8868160, “Antioxidant and Anti-α-Glucosidase Activities of Various Solvent Extracts and Major Bioactive Components from the Fruits of Crataegus pinnatifida” (Antioxidants, 2022)
Where two headings read alike, the source gives them in different places.

Legend:
[1] = DPPH radical scavenging activity; type: biochemical
Method: The scavenging activity of DPPH radical was investigated as described with slight modification. DPPH solution was prepared diluted by EtOH to reach the final concentration of 200 µM. Different concentrations (200, 100, 50, 25, and 12.5 µg/mL) of extracts or compounds (100 µL) were mixed with DPPH solution (100 µL) and incubated for 30 min at room temperature and in darkness, and the absorbance of the mixture was measured at 520 nm. DPPH radical scavenging activity was calculated with the following formula: DPPH scavenging activity (%) = (Ac − At)/Ac × 100, where At is the absorbance of the test sample, and Ac is the absorbance of the control (untreated group). BHT was used as the positive control. All half-maximal inhibitory concentration (IC50) values of tested activities were determined by the linear regression of the percentage of remaining DPPH radical against the sample’s concentration.

[2] = ABTS radical scavenging activity; type: biochemical
Method: ABTS radical scavenging activity of each extract was measured based on the method with slight changes. In brief, the stock of working solution was prepared by the mix of 28 mM ABTS solution and 9.6 mM potassium persulfate with ddH2O (final concentration, 1/1, v/v) and leaving the mixture in the dark for about 16 h at room temperature before use. The working solution was diluted by EtOH to reach the absorbance of 0.70 ± 0.02 at 740 nm for further experiments. Different concentrations (200, 100, 50, 20, and 12.5 µg/mL) of extracts or compounds (10 µL) were mixed with the working solution (190 μL). The mixture was incubated at room temperature for 6 min, the antioxidant activity of the mixture was determined by calculating the decrease in absorbance measured at 740 nm by the following equation:ABTS radical inhibiting activity (%) = (Ac − At)/Ac × 100,
Where Ac and At are the absorbance of the control (untreated group) and test sample, respectively. The IC50 values of all tested activities were determined by the liner regression of the percentage of remaining ABTS radical against the sample’s concentration.

[3] = Hydroxyl radical scavenging activity (Fenton reaction, deoxyribose); type: biochemical
Method: The scavenging activity of hydroxyl radical was measured based on the method described by Mathew and Abraham with slight revision. In short, different concentrations (400, 200, 10, 50, and 25 µg/mL) of extracts or compounds (200 μL) were mixed with working solution (200 μL) contained 1 mM FeCl3, 1 mM EDTA, and 2.8 mM deoxyribose. Then, 20 μL ascorbic acid (1 mM) and 100 μL H2O2 (20 mM) in sodium phosphate buffer (20 mM pH 7.4) was added. The mixture was incubated in a water bath at 37 °C for 1 h to trigger the Fenton reaction and form a hydroxyl radical. After incubation, 2.8% TCA (200 μL) and 1% TBA (200 μL) were added and boiled in the dry bath at 100 °C for 1 h. The mixture was measured at 532 nm by the following equation:Hydroxyl radical scavenging activity (%) = (Ac − At)/Ac × 100, where At and Ac are the absorbance of the test sample and the control (untreated group), respectively. The IC50 values of all tested activities were determined by the linear regression of the percentage of remaining hydroxyl radical against the sample’s concentration.

[4] = Ferric reducing antioxidant power (FRAP); type: biochemical
Method: Ferric reducing antioxidant power was measured based on previous study with slight modification. The working solution was mixed with acetate buffer (pH 3.6), ferric chloride solution (20 mM), and TPTZ solution (10 mM TPTZ in 40 mM HCl) in a proportion of 10:1:1, respectively, and freshly prepared before used. An amount of 900 μL of the working solution was warmed to 37 °C and then mixed with 100 μL of the diluted sample, blank or standard in a microcentrifuge tube. The tubes were vortexed and in the dry bath at 37 °C for 40 min. Absorbance was measured at 593 nm. […] Results are expressed in mM TE/g dry weight. Additional dilution was needed if the FRAP value measured was over the linear range of the standard curve.

[5] = Superoxide radical scavenging activity (PMS/NADH-NBT system); type: biochemical; details: isolated components (Table 5)
Method: The scavenging activity of superoxide anion radical (O2^•−) was evaluated using a modified method. NBT (300 μM), NADH (468 μM), and PMS (120 μM) were prepared with dilution by Tris-HCl buffer (16 mM, pH 8.0), respectively. An amount of 50 μL of NBT, PMS, and different concentrations (400, 200, 10, 50, and 25 µg/mL) of extracts or compounds were mixed. An amount of 50 μL NADH solution was added, and the reaction was initiated to produce superoxide radicals. The absorbance was measured at 560 nm after incubating at room temperature for 5 min. The scavenging activity was measured by the following equation:Superoxide radical scavenging activity = (Ac − At)/Ac × 100, where At is the absorbance of the test sample, and Ac is the absorbance of the control (untreated group). The IC50 values of all tested activities were determined by the linear regression of the percentage of remaining superoxide radical against the sample concentration.

α-glucosidase = target: T1, α-glucosidase (Saccharomyces cerevisiae, UniProt P53341); assay: biochemical
T1 construct: purchased Sigma-Aldrich
Method: The inhibition assay of α-glucosidase was conducted using the conditions previously reported with slight modifications. The α-Glucosidase solution was diluted by 0.1 M sodium phosphate buffer (pH 6.8) to 1 U/mL. […] Subsequently, p-NPG (0.53 mM; 380 μL), the substrate, was added and incubated in dry baths at 37 °C for 40 min after the mixture vortexed. The reaction was terminated after adding 0.1 M Na2CO3 solution (500 μL). The absorbance of released p-nitrophenol (p-PNP) was measured by calculating the decrease in absorbance measured at 400 nm by the following equation:α-Glucosidase inhibition (%) = (Ac − At)/Ac × 100, where Ac is the absorbance of the control (untreated group), and At is the absorbance of the test sample. The IC50 values of all tested activities were determined by the linear regression of the percentage of remaining α-glucosidase against the sample concentration.

[6] = isolated components, BHT positive control (Table 5)
[7] = solvent extracts, BHT positive control (Table 2)
[8] = isolated components, mM Trolox equivalents per gram (Table 5)

T1 sequence (P53341 whole entry): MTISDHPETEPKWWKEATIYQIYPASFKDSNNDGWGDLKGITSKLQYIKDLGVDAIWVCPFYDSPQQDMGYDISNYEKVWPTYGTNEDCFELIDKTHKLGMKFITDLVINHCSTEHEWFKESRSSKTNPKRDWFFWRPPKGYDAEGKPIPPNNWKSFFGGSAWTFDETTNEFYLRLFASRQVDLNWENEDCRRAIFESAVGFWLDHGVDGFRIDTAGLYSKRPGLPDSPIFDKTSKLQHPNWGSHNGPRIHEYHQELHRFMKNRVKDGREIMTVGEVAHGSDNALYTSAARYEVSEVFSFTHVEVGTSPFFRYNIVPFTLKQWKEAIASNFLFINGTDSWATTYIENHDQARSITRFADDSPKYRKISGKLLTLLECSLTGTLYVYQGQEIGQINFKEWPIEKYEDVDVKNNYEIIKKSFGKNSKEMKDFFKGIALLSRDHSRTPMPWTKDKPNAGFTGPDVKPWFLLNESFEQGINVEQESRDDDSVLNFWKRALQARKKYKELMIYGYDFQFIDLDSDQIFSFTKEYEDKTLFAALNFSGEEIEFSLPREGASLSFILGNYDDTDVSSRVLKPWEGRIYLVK

DPPH IC50 ([1]; solvent extracts of C. pinnatifida fruits, BHT positive control (Table 2)) | ABTS IC50 [2, 7] | Hydroxyl IC50 [3, 6] | Hydroxyl IC50 [3, 7] | IC50 (α-glucosidase; read-out: α-Glucosidase IC50 (converted)) | Compound | DPPH IC50 [1, 6] | ABTS IC50 [2, 6] | FRAP (TE) [4, 8] | FRAP (TE) ([4]; millimolar Trolox equivalents per gram of extract (Table 2)) | Superoxide IC50 [5] | FRAP (TE) ([4]; isolated components, mM Trolox equivalents per gram (Table 5), listed as epicatechin) | FRAP (TE) ([4]; isolated components, mM Trolox equivalents per gram (Table 5), listed as procyanidin B2) | IC50 (α-glucosidase)
34.28 ± 1.40 µg/mL | 12.34 ± 0.29 µg/mL | 60.62 ± 2.58 µg/mL | 61.51 ± 2.46 µg/mL | – | Cc1cc(C(C)(C)C)c(O)c(C(C)(C)C)c1 [BHT, Butylated hydroxytoluene, reference compound] | 24.04 ± 4.40 µg/mL | 16.13 ± 3.29 µg/mL | 4257.97 ± 44.90 mM/g | 4257.97 ± 44.90 mM/g | – | – | – | –
– | – | 20 ± 3.49 µg/mL | – | 282 µM | Oc1cc(O)c2c(c1)O[C@H](c1ccc(O)c(O)c1)[C@H](O)C2 [Epicatechin, epicatechin] | 2.53 ± 0.25 µg/mL | 3.75 ± 0.03 µg/mL | 13,165.19 ± 42.42 mM/g | – | 41.56 ± 0.20 µg/mL | ≥ 7726.67 ± 39.97 mM/g | – | –
– | – | – | – | – | O=c1c(O[C@@H]2O[C@H](CO)[C@H](O)[C@H](O)[C@H]2O)c(-c2ccc(O)c(O)c2)oc2cc(O)cc(O)c12 [Hyperoside, hyperoside] | 5.29 ± 0.17 µg/mL | 18.00 ± 0.16 µg/mL | – | – | 10.59 ± 0.22 µg/mL | – | – | 75.3 µM

Compound | DPPH IC50 ([1]; solvent extracts of C. pinnatifida fruits, BHT positive control (Table 2)) | ABTS IC50 [2, 7] | Hydroxyl IC50 [3, 6] | Hydroxyl IC50 [3, 7] | IC50 (α-glucosidase; read-out: α-Glucosidase IC50 (converted)) | DPPH IC50 [1, 6] | ABTS IC50 [2, 6] | FRAP (TE) [4, 8] | FRAP (TE) ([4]; millimolar Trolox equivalents per gram of extract (Table 2)) | Superoxide IC50 [5] | FRAP (TE) ([4]; isolated components, mM Trolox equivalents per gram (Table 5), listed as epicatechin) | FRAP (TE) ([4]; isolated components, mM Trolox equivalents per gram (Table 5), listed as procyanidin B2) | IC50 (α-glucosidase)
Oc1cc(O)c2c(c1)O[C@H](c1ccc(O)c(O)c1)[C@H](O)[C@H]2c1c(O)cc(O)c2c1O[C@H](c1ccc(O)c(O)c1)[C@H](O)C2 [Procyanidin B2, procyanidin B2] | – | – | 13.69 ± 1.88 µg/mL | – | – | 2.81 ± 0.08 µg/mL | 2.91 ± 0.57 µg/mL | 11,092.44 ± 32.92 mM/g | – | 37.22 ± 0.63 µg/mL | – | ≥ 7726.67 ± 39.97 mM/g | 205 µM
